Some results are limits rather than exact numbers.

One data set deals with P110β (Homo sapiens, UniProt P42338). The experiment in a line: Fluorescent (HTRF) determination of PI3K enzyme activity, β isoform. In kind it is biochemical. The source says:
Assay 1: Fluorescent determination of PI3Kinase Kinase enzyme activity
Phosphoinositide 3 kinases (PI3K) belong to a class of lipid kinases that play a critical role in the regulation of several key cellular processes. The PI3K are capable of phosphorylating the 3-hydroxy position of phosphoinositols thereby generating second messengers involved in downstream signalling events. The homogenous time resolved fluorescence (HTRF) assay allows detection of 3,4,5-triphosphate (PIP3) formed as a result of phosphorylation of phosphotidylinositol 4,5-biphosphate (PIP2) by PI3K isoforms such as α, β, γ or δ.
PI3K isoform activity for α, β, γ or δ was determined using a PI3K human HTRF™ Assay Kit (Millipore, Billerica, Mass.) with modifications. All incubations were carried out at room temperature. Briefly, 0.5 μl of 40× inhibitor (in 100% DMSO) or 100% DMSO were added to each well of a 384-well black plate (Greiner Bio-One, Monroe, N.C.) containing 14.5 μl 1× reaction buffer/PIP2 (10 mM MgCl2, 5 mM DTT, 1.38 μM PIP2) mix with or without enzyme and incubated for 10 min. After the initial incubation, 5 μl/well of 400 μM ATP was added and incubated for an additional 30 minutes. Reaction was terminated by adding 5 μl/well stop solution (Millipore, Billerica, Mass.). Five microliters of detection mix (Millipore, Billerica, Mass.) were then added to each well and was incubated for 6-18 h in the dark. HRTF ratio was measured on a microplate reader (BMG Labtech., Germany) at an excitation wavelength of 337 nm and emission wavelengths of 665 and 620 nm with an integration time of […]. Data were analyzed using Graphpad Prism (Graphpad software; San Diego Calif.) for IC50 determination. Percent inhibition was calculated based on the values for the blank and enzyme controls. The results are provided below in Table 2 & 3.

The target of the next data set is P110 δ/Pi3K δ (Homo sapiens, UniProt O00329). As to the kind of experiment: Fluorescent (HTRF) determination of PI3K enzyme activity, δ isoform. In kind it is biochemical. Further details: inhibition: dose or concentration left out as unconfirmed. Summed up:
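HTRF kit detecting PIP3 formed from PIP2 by human PI3Kδ, at room temperature. Reaction started with 400 μM ATP (addition concentration) for 30 min, then stopped, and detection mix incubated 6–18 h in the dark. Percent inhibition taken against blank and enzyme controls, and IC50 fitted.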
In general terms: In TR-FRET formats the signal depends on donor and acceptor labels being close together.

Sequence of P110 δ/Pi3K δ (O00329 whole entry, canonical isoform): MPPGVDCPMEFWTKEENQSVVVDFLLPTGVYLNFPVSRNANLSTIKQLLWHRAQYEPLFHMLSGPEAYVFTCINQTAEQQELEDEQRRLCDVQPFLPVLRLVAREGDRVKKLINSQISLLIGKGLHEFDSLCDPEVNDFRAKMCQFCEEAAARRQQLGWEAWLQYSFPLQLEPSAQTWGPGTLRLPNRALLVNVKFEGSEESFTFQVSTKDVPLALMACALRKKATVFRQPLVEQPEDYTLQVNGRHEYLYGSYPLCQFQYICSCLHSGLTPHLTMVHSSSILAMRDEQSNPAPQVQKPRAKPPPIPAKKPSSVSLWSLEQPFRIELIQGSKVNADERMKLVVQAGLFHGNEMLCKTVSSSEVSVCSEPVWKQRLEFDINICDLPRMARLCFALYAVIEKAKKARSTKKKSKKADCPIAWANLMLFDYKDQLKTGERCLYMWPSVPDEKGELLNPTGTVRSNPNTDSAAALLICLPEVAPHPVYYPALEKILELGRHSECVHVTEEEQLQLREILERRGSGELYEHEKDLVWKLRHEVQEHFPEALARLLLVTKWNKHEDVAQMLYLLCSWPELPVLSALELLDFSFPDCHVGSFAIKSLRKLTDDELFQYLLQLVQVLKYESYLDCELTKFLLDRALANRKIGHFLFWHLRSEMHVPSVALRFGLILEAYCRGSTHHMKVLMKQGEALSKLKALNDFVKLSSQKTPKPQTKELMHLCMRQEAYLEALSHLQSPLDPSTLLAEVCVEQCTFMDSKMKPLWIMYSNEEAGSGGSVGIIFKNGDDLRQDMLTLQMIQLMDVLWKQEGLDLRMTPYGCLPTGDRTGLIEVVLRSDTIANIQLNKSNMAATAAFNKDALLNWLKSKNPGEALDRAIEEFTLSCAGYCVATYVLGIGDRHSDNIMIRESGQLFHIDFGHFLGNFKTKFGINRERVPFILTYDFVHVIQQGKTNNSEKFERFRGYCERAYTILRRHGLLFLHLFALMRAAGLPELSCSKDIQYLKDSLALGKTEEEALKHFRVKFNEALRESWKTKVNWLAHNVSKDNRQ
Sequence of P110 δ/Pi3K δ (P27986 whole entry partner, canonical isoform): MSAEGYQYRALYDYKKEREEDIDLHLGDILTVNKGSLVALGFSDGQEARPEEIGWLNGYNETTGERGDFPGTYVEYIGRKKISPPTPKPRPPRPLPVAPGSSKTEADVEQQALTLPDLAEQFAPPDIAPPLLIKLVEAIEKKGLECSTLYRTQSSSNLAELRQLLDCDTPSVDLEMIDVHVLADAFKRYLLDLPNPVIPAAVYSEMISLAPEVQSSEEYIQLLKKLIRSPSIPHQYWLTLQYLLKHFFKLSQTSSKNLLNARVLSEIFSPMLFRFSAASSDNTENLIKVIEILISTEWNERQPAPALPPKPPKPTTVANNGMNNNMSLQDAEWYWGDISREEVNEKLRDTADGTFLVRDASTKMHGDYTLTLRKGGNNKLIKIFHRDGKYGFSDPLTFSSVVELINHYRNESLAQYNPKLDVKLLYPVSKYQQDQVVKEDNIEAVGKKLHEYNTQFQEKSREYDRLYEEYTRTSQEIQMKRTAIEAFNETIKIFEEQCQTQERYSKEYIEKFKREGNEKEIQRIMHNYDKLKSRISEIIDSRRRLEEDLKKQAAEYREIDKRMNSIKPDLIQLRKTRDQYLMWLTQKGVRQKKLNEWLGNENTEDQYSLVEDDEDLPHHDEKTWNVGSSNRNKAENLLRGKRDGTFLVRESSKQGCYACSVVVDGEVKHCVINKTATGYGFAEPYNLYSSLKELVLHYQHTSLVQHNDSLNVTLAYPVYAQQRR
Sequence of P110β (P42338 whole entry, canonical isoform): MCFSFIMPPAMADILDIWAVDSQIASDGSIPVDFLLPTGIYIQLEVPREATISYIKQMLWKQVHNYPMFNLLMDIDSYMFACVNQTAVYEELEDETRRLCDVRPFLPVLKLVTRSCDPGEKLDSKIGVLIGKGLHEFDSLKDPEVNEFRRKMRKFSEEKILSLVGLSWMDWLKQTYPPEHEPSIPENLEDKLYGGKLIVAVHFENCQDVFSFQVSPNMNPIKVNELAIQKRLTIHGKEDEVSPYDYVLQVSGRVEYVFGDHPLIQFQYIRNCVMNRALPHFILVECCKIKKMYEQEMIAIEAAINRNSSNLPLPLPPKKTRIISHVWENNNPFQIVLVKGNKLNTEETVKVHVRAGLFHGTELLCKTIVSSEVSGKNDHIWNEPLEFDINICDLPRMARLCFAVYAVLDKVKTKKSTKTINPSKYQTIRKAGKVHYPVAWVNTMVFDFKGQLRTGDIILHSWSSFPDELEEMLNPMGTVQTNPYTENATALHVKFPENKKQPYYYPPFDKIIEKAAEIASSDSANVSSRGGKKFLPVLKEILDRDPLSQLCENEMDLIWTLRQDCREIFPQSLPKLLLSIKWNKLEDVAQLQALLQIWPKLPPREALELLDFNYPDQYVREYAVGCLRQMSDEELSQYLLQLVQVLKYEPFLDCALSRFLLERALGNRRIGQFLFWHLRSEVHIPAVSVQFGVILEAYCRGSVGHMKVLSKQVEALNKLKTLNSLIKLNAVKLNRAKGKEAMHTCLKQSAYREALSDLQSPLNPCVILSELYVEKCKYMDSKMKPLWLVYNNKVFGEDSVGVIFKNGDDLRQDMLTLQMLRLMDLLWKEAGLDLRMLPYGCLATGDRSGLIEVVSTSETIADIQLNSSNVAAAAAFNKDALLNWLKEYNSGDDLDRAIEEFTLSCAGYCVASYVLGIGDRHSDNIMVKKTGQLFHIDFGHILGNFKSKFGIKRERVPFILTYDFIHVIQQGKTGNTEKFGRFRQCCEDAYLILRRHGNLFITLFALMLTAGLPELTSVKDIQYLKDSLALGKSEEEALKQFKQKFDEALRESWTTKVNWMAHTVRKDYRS
Sequence of P110β (P27986 whole entry partner, canonical isoform): as the sequence (P27986 whole entry partner, canonical isoform) above

In general, inhibition refers to the relative decrease from the control value, in per cent. `O=c1c(-c2ccc(F)cc2)c(CN2CCOCC2)oc2ccc(Br)cc12` [Example 17, 6-Bromo-3-(4-fluorophenyl)-2-(morpholinomethyl)-4H-chromen-4-one]: at P110β, the inhibition at 1 µM is less than 25%. With `COc1c(F)cc(-c2nn(C(C)c3oc4ccccc4c(=O)c3-c3cccc(F)c3)c3ncnc(N)c23)cc1F` (centres unmarked) [Example 126, 2-(1-(4-amino-3-(3,5-difluoro-4-methoxyphenyl)-1H-pyrazolo[3,4-d]pyrimidin-1-yl)ethyl)-3-(3-fluorophenyl)-4H-chromen-4-one], the inhibition at 1 µM against P110β was less than 25%. Same read-out and setting: under `COc1c(F)cc(-c2nn(Cc3oc4ccc(F)cc4c(=O)c3-c3cccc(F)c3)c3ncnc(N)c23)cc1F` [Example 127, 2-((4-amino-3-(3,5-difluoro-4-methoxyphenyl)-1H-pyrazolo[3,4-d]pyrimidin-1-yl)methyl)-6-fluoro-3-(3-fluorophenyl)-4H-chromen-4-one] stands 50 to 100%. What is called melting point is the temperature, or range, at which the solid turns liquid. Consider `CC(c1oc2ccccc2c(=O)c1-c1cccc(F)c1)n1nc(-c2cccc3c2oc2ccccc23)c2c(N)ncnc21` (centres unmarked) [Example 138, 2-(1-(4-amino-3-(dibenzo[b,d]furan-4-yl)-1H-pyrazolo[3,4-d]pyrimidin-1-yl)ethyl)-3-(3-fluorophenyl)-4H-chromen-4-one], for which the melting point fell in the range of 238 to 240 °C. This compound had an inhibition at 1 µM against P110β of 25 to 50%. `CC(c1oc2ccccc2c(=O)c1-c1cccc(F)c1)n1nc(-c2ccc3cc(O)ccc3c2)c2c(N)ncnc21` (centres unmarked) [Example 162, 2-(1-(4-amino-3-(6-hydroxynaphthalen-2-yl)-1H-pyrazolo[3,4-d]pyrimidin-1-yl)ethyl)-3-(3-fluorophenyl)-4H-chromen-4-one] had a melting point of 281 to 285 °C. This compound yielded an inhibition on P110 δ/Pi3K δ of 50 to 100%. In turn, `CC(C)Oc1cccc(-c2nn(C(C)c3oc4ccccc4c(=O)c3-c3cccc(F)c3)c3ncnc(N)c23)c1` (centres unmarked) [Example 163, 2-(1-(4-amino-3-(3-isopropoxyphenyl)-1H-pyrazolo[3,4-d]pyrimidin-1-yl)ethyl)-3-(3-fluorophenyl)-4H-chromen-4-one] had a melting point of 153 to 157 °C. The same compound returned an inhibition at P110 δ/Pi3K δ of less than 50%. Consider `COc1ccc(NC(C)c2oc3ccc(F)cc3c(=O)c2-c2cccc(F)c2)cc1` (centres unmarked) [Example 165, 6-Fluoro-3-(3-fluorophenyl)-2-(1-(4-methoxyphenylamino)ethyl)-4H-chromen-4-one], for which the melting point fell in the range of 152 to 156 °C. At P110 δ/Pi3K δ, this compound gave an inhibition of less than 50%. `CC(c1oc2ccccc2c(=O)c1-c1cccc(F)c1)n1ccc2c(Cl)ncnc21` (centres unmarked) [Example 166, 2-(1-(4-Chloro-7H-pyrrolo[2,3-d]pyrimidin-7-yl)ethyl)-3-(3-fluorophenyl)-4H-chromen-4-one]: the melting point lay in the range of 71 to 75 °C. This compound also gave an inhibition against P110 δ/Pi3K δ of less than 50%. The corresponding values for `CC(c1oc2ccccc2c(=O)c1-c1cccc(F)c1)n1ncc2c(Cl)ccnc21` (centres unmarked) [Example 167, 2-(1-(4-Chloro-1H-pyrazolo[3,4-b]pyridin-1-yl)ethyl)-3-(3-fluorophenyl)-4H-chromen-4-one] are 173 to 176 °C and less than 50%.

The compound `CC(c1oc2ccccc2c(=O)c1-c1cccc(F)c1)n1ncc2c(Cl)ncnc21` (centres unmarked) [Example 168, 2-(1-(4-Chloro-1H-pyrazolo[3,4-d]pyrimidin-1-yl)ethyl)-3-(3-fluorophenyl)-4H-chromen-4-one] registered a melting point of 197 to 201 °C. The same compound displayed an inhibition on P110 δ/Pi3K δ of less than 50%. The corresponding values for `CC(c1oc2ccccc2c(=O)c1-c1cccc(F)c1)n1ccc2ncnc(Cl)c21` (centres unmarked) [Example 169, 2-(1-(4-Chloro-5H-pyrrolo[3,2-d]pyrimidin-5-yl)ethyl)-3-(3-fluorophenyl)-4H-chromen-4-one] are 166 to 168 °C and less than 50%. In turn, `Cc1nn(C)c2cc(-c3nn(C(C)c4oc5ccccc5c(=O)c4-c4cccc(F)c4)c4ncnc(N)c34)ccc12` (centres unmarked) [Example 170, 2-(1-(4-amino-3-(1,3-dimethyl-1H-indazol-6-yl)-1H-pyrazolo[3,4-d]pyrimidin-1-yl)ethyl)-3-(3-fluorophenyl)-4H-chromen-4-one] displayed a melting point of 270 to 272 °C. Moreover, the inhibition on P110 δ/Pi3K δ was 50 to 100%.

In turn, `Cc1c2ccc(-c3nn(C(C)c4oc5ccccc5c(=O)c4-c4cccc(F)c4)c4ncnc(N)c34)cc2nn1C` (centres unmarked) [Example 171, 2-(1-(4-amino-3-(2,3-dimethyl-2H-indazol-6-yl)-1H-pyrazolo[3,4-d]pyrimidin-1-yl)ethyl)-3-(3-fluorophenyl)-4H-chromen-4-one] gave a melting point of 269 to 274 °C. The compound further came in with an inhibition at P110 δ/Pi3K δ of less than 50%.

On to `COc1ccc2cc(-c3nn(C(C)c4oc5ccccc5c(=O)c4-c4cccc(F)c4)c4ncnc(N)c34)ccc2c1` (centres unmarked) [Example 172, 2-(1-(4-amino-3-(6-methoxynaphthalen-2-yl)-1H-pyrazolo[3,4-d]pyrimidin-1-yl)ethyl)-3-(3-fluorophenyl)-4H-chromen-4-one], for which the melting point was in the range of 285 to 287 °C. The same compound displayed an inhibition at P110 δ/Pi3K δ of less than 50%. In the same order, the values of `CC(c1oc2ccccc2c(=O)c1-c1cccc(F)c1)n1nc(-c2csc3ccccc23)c2c(N)ncnc21` (centres unmarked) [Example 173, 2-(1-(4-amino-3-(benzo[b]thiophen-3-yl)-1H-pyrazolo[3,4-d]pyrimidin-1-yl)ethyl)-3-(3-fluorophenyl)-4H-chromen-4-one] are 226 to 229 °C and 50 to 100%. Take `CC(c1oc2ccccc2c(=O)c1-c1cccc(F)c1)n1nc(-c2cccc(C(=O)NC3CC3)c2)c2c(N)ncnc21` (centres unmarked) [Example 176, 3-(4-amino-1-(1-(3-(3-fluorophenyl)-4-oxo-4H-chromen-2-yl)ethyl)-1H-pyrazolo[3,4-d]pyrimidin-3-yl)-N-cyclopropylbenzamide]: the melting point was in the range of 127 to 132 °C. The compound further had an inhibition on P110 δ/Pi3K δ of less than 50%. The corresponding values for `CC(c1oc2ccccc2c(=O)c1-c1cccc(F)c1)n1nc(-c2cccc(C(=O)N3CCOCC3)c2)c2c(N)ncnc21` (centres unmarked) [Example 177, 2-(1-(4-amino-3-(3-(morpholine-4-carbonyl)phenyl)-1H-pyrazolo[3,4-d]pyrimidin-1-yl)ethyl)-3-(3-fluorophenyl)-4H-chromen-4-one] are 104 to 106 °C and less than 50%. In the same order, the values of `CC(c1oc2ccccc2c(=O)c1-c1cccc(F)c1)n1nc(-c2cccc(OC(F)F)c2)c2c(N)ncnc21` (centres unmarked) [Example 178, 2-(1-(4-amino-3-(3-(difluoromethoxy)phenyl)-1H-pyrazolo[3,4-d]pyrimidin-1-yl)ethyl)-3-(3-fluorophenyl)-4H-chromen-4-one] are 176 to 179 °C and 50 to 100%. For `CC(c1oc2ccccc2c(=O)c1-c1cccc(F)c1)n1nc(-c2ccc(C=O)o2)c2c(N)ncnc21` (centres unmarked) [Example 179, 5-(4-amino-1-(1-(3-(3-fluorophenyl)-4-oxo-4H-chromen-2-yl)ethyl)-1H-pyrazolo[3,4-d]pyrimidin-3-yl)furan-2-carbaldehyde], the melting point lay in the range of 215 to 217 °C. Moreover, the inhibition against P110 δ/Pi3K δ lay in the range of 50 to 100%.

For the origin of these results see patent US9421209B2, “Kinase modulators” (Rhizen Pharmaceuticals SA, priority 2009, dated 2016).
